Results: patent US20190142893A1, “Electron, Radical, or Reactive Oxygen Species-Scavenging Agent Based Therapy of Inborn Errors of Fatty Acid Oxidation and Oxidative Phosphorylation” (University of Pittsburgh- Of the Commonwealth System of …, priority 2016, published 2019)

Key:
Assay type in all cases: cell-based, human
[1] = system: VLCAD deficient fibroblasts (Fb671, Fb773, Fb834, Fb833); test: Superoxide production (MitoSOX Red, flow cytometry) in VLCAD deficient fibroblasts; details: patient cells, media without glucose 48 h, after 24 h of treatment; FIGS. 27 and 28
Protocol: ROS generation: control and patient fibroblasts were cultivated in normal media or without glucose for 48 hours, then incubated for 15 min with MitoSox Red (Life Technologies). Fluorescence was evaluated by flow cytometry.
(§1) Cells were grown in Dulbecco's Modified Eagle Medium (DMEM), Corning Life Sciences, Manassas, Va., containing high glucose levels or in DMEM devoid of glucose for 48-72 h. Both media were supplemented with glutamine, 10% fetal bovine serum, 4 mM glutamine, 100 IU penicillin and 100 μg/mL streptomycin, Corning Life Sciences, Manassas, Va.
(§2) Cells were treated with different compounds in different concentrations 24 or 48 h before the assays. The compounds used were N-acetylcysteine (1 mM), bezafibrate (600 μM), resveratrol (75 μM), MiloQ (200 nM), trolox (1 mM) and JP4-039 (40 and 200 nM).
(§3) Cell suspension containing 1×10^5 cells per mL were incubated for 25 min at 37° C. with 150 nM Mitotracker Green, Invitrogen, Grand Island, N.Y., for mitochondrial mass evaluation or for 15 min at 37° C. with 5 μM MitoSOX Red, Invitrogen, Grand Island, N.Y., for superoxide production measurement. After incubation, 10,000 cells samples were analyzed in a Becton Dickinson FACSAria II flow cytometer, BD Biosciences, San Jose, Calif.

[2] = system: FAO deficient fibroblasts; test: Superoxide production (MitoSOX dye) in FAO deficient fibroblasts; details: FAO deficient fibroblasts cultured in absence of glucose 48-72 h
Protocol: FAO deficient fibroblasts were cultured in the absence of glucose for 48-72 h to shift to fatty acids as the energy source. Oxygen consumption rate (OCR) was monitored by a Seahorse XF analyzer (See FIG. 23). Mitochondrial mass was examined by MitoTracker Green and ROS generation by MitoSOX dye. Protein immunocontent was evaluated by western blotting. […] Testing of XJB-5-131 was conducted essentially as described for JP4-039.
as §3

[3] = system: VLCAD deficient fibroblasts (Fb671, Fb773, Fb834); test: Oxygen consumption rate (Seahorse analyzer) in VLCAD deficient fibroblasts; details: FB671, media without glucose, FIG. 25
Protocol: Oxygen consumption assay: Fibroblasts controls and from patients with VLCAD deficiency were cultivated in normal media or in the absence of glucose for 72 hours. The oxygen consumption was monitored by a Seahorse XFe96 Extracellular Flux Analyzer (Seahorse Bioscience, Billerica, Mass.).
as §1, §2
Oxygen consumption rate (OCR) was measured with a Seahorse XF^c96 Extracellular Flux Analyzer (Seahorse Bioscience, Billerica, Mass.). The apparatus contains a fluorophore that is sensitive to changes in oxygen concentration, which enables it to accurately measure the rate at which cytochrome c oxidase (complex IV) reduces one O2 molecule to two H2O molecules during OXPHOS. Cells were seeded in 96-well Seahorse tissue culture microplates in growth media at a density of 80,000 cells per well. To ensure equal cell numbers, cells were seeded in cell culture plates pre-coated with Cell-Tak (BD Biosciences, San Jose, Calif.). All cell lines were measured with four to six wells per cell line. Then, the entire experiments were repeated. Before running the Seahorse assay, cells were incubated for 1 h without CO2 in unbuffered DMEM. Initial OCR was measured to establish a baseline (basal respiration). Reserve capacity was also determined after the injection of 300 nM carbonyl cyanide 4-(trifluoromethoxy) phenylhydrazone (FCCP), Seahorse XF Cell Mito Stress Test Kit, Santa Clara, Calif. Data were reported in pmol/min for OCR.

SMILES | Superoxide generation (increased levels in VLCAD deficient cells) [1] | Increased superoxide production [2] | Reserved capacity (oxygen consumption) ([3]; 40 nM) | Basal respiration (oxygen consumption) ([3]; 200 nM) | Reserved capacity (oxygen consumption) ([3]; 200 nM)
COC1=C(OC)C(=O)C(CCCCCCCCCC[P+](c2ccccc2)(c2ccccc2)c2ccccc2)=C(C)C1=O [MitoQ] | JP4-039 was the only antioxidant able to decrease superoxide generation | – | – | – | –
CC(=O)N[C@@H](CS)C(=O)O [N-acetylcysteine] | JP4-039 was the only antioxidant able to decrease superoxide generation | – | – | – | –
CC(C)C[C@@H](/C=C/[C@H](Cc1ccccc1)C(=O)N1CCC[C@H]1C(=O)N[C@H](C(=O)N[C@@H](CCCNC(=O)OCc1ccccc1)C(=O)NC1CC(C)(C)N([O])C(C)(C)C1)C(C)C)NC(=O)OC(C)(C)C [XJB-5-131] | – | prevented | improves | improved | improves
Oc1ccc(C=Cc2cc(O)cc(O)c2)cc1 [resveratrol] | JP4-039 was the only antioxidant able to decrease superoxide generation | – | – | – | –
